In paper PMC6117054, “The Congo red derivative FSB binds to curli amyloid fibers and specifically stains curliated E. coli” (PLoS ONE, 2018):

Target: T1, curli (native curli fibers; monomeric unit CsgA) (Escherichia coli, UniProt P28307)
T1 construct: native curli amyloid fibers isolated from E. coli MC4100; mature secreted CsgA (signal peptide removed); 13 kDa monomeric unit; fiber polymer
Assay: depletion (centrifugation) assay, absorbance of free dye at […] nm, saturation fit
Assay type: binding

T1 sequence (P28307 21-151): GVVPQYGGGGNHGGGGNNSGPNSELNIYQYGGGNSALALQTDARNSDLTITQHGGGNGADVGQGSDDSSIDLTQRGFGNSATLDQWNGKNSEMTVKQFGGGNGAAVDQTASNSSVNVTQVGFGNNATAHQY

SMILES: O=C(O)c1cc(/C=C/c2ccc(/C=C/c3ccc(O)c(C(=O)O)c3)c(F)c2)ccc1O [FSB, (E,E)-1-fluoro-2,5-bis(3-hydroxycarbonyl-4-hydroxy) styrylbenzene]
- Kd: 7.9 µM
